Assay results as given in patent US20090156666A1, “NOVEL COMPOSITIONS AND USE THEREOF FOR THE TREATMENT, CO-TREATMENT OR PREVENTION OF INFLAMMATORY DISORDERS” (priority 2007, published 2009).

Tests used:
collagen I = test: Gene expression (mRNA, RT-PCR) in normal human chondrocytes: collagen I; format: cell-based; details: 50 μmol/L; 4 hrs; % of unstimulated cells (100%)
Protocol: (§1) The effect of a MA/HO (1:3 w/w) mixture in combination with glucosamine was tested on the expression of human aggrecan, collagen I, collagen II, or chondrocyte transcription factors (SOX-6, -9) in vitro in normal human chondrocytes (derived from knee) (CC-2550; Cambrex, respectively). A control experiment without the compounds was done concomitantly to compare the expression of these genes (percentage expression of gene in controls was set to 100%). […] The level of mRNA was determined by RT-PCR (Richard et al. Mol. Nutr. Food Res. 49, 431-442, 2005) and expressed relative to the level observed in cells cultured without the substances. The given values indicate the level of gene expression (in % of unstimulated cells [set at 100%] for anabolic and anti-catabolic genes; in % of IL1β-treated cells [set at 100%], for catabolic genes). […] Yet, when combined the observed increase in gene expression exceeded the expected one reflecting synergism.

human aggrecan = test: Gene expression (mRNA, RT-PCR) in normal human chondrocytes: aggrecan; format: cell-based; details: 50 μmol/L; 4 hrs; % of unstimulated cells (100%)
Protocol: as §1

MMP-9 = test: Gene expression (mRNA, RT-PCR) in normal human chondrocytes: MMP-9 (catabolic); format: cell-based; details: 50 μmol/L; stim. 4 hrs; % of IL1β-treated cells (100%)
From the text: as §1, with “Catabolic events are controlled by the expression of genes, e.g. those genes that encode matrix metalloproteinases (MMPs) that eventually break down collagen or proteoglycans (ADAMTS-4, -5). Of the MMPs, MMP-1 and MMP-3 have a major role in breaking down the ECM in cartilage degradation. Some genes including TIMPS-1 (tissue-inhibitor of MMPs) have anti-catabolic effects and thus contribute to prevention of tissue erosion. The effect” for “The effect”

ADAMTS-4 = test: Gene expression (mRNA, RT-PCR) in normal human chondrocytes: ADAMTS-4 (catabolic); format: cell-based; details: 50 μmol/L; unstim. 4 d; % of control (100%)
From the text: Catabolic events are controlled by the expression of genes, e.g. those genes that encode matrix metalloproteinases (MMPs) that eventually break down collagen or proteoglycans (ADAMTS-4, -5). Of the MMPs, MMP-1 and MMP-3 have a major role in breaking down the ECM in cartilage degradation. Some genes including TIMPS-1 (tissue-inhibitor of MMPs) have anti-catabolic effects and thus contribute to prevention of tissue erosion. The effect of a MA/HO (1:3 w/w) mixture in combination with glucosamine was tested on the expression of human aggrecan, collagen I, collagen II, or chondrocyte transcription factors (SOX-6, -9) in vitro in normal human chondrocytes (derived from knee) (CC-2550; Cambrex, respectively). A control experiment without the compounds was done concomitantly to compare the expression of these genes (percentage expression of gene in controls was set to 100%). […] The level of mRNA was determined by RT-PCR (Richard et al. Mol. Nutr. Food Res. 49, 431-442, 2005) and expressed relative to the level observed in cells cultured without the substances. […] […] Yet, when combined the observed increase in gene expression exceeded the expected one reflecting synergism.

TMP-I = test: Gene expression (mRNA, RT-PCR) in normal human chondrocytes: TMP-I (anti-catabolic); format: cell-based; details: 50 μmol/L; 4 hrs; % of unstimulated cells (100%)
From the text: Catabolic events are controlled by the expression of genes, e.g. those genes that encode matrix metalloproteinases (MMPs) that eventually break down collagen or proteoglycans (ADAMTS-4, -5). Of the MMPs, MMP-1 and MMP-3 have a major role in breaking down the ECM in cartilage degradation. Some genes including TIMPS-1 (tissue-inhibitor of MMPs) have anti-catabolic effects and thus contribute to prevention of tissue erosion. The effect of a MA/HO (1:3 w/w) mixture in combination with glucosamine was tested on the expression of human aggrecan, collagen I, collagen II, or chondrocyte transcription factors (SOX-6, -9) in vitro in normal human chondrocytes (derived from knee) (CC-2550; Cambrex, respectively). A control experiment without the compounds was done concomitantly to compare the expression of these genes (percentage expression of gene in controls was set to 100%). […] The level of mRNA was determined by RT-PCR (Richard et al. Mol. Nutr. Food Res. 49, 431-442, 2005) and expressed relative to the level observed in cells cultured without the substances. The given values indicate the level of gene expression (in % of unstimulated cells [set at 100%] for anabolic and anti-catabolic genes; in % of IL1β-treated cells [set at 100%], for catabolic genes). […] Yet, when combined the observed increase in gene expression exceeded the expected one reflecting synergism.

collagen II = test: Gene expression (mRNA, RT-PCR) in normal human chondrocytes: collagen II; format: cell-based; details: 50 μmol/L; 4 hrs; % of unstimulated cells (100%)
Protocol: as §1

[1] = tested on: nitric oxide (NO) synthesis in RAW264.7 cells; test: Inhibition of nitric oxide synthesis in LPS-stimulated RAW264.7 macrophages (Griess reaction); format: cell-based, murine; details: single substances

IC50 ([1]; Mus musculus, LPS 1 μg/ml, 24 hours): > 100 µM
SMILES: N[C@H]1C(O)O[C@H](CO)[C@@H](O)[C@@H]1O.O=S(=O)(O)O (some centres unmarked) [Glucosamine sulfate, glucosamine sulfate]
Collagen 1 gene expression level (collagen I): 121%
Aggrecan gene expression level (human aggrecan): 81%
MMP-9 gene expression level (MMP-9): 114%
ADAMTS-4 gene expression level (ADAMTS-4): 101%
TMP-I gene expression level (TMP-I): 110%
Collagen II gene expression level (collagen II): 154%
anti-inflammatory activity (in words) ([1]; LPS-stimulated, nitric oxide): marginal anti-inflammatory
